Assay results from patent US10519111B2, “UV absorbing compounds, compositions comprising same and uses thereof” (CORAL SUNSCREEN PTY LTD, priority 2013, dated 2019).
Where “and” joins values, the source holds several entries; their conditions need not be identical. Identical values can stand only once. One block for each compound: values may come before it.

Assay: UV absorption properties (λmax, molar extinction coefficient ε, efficiency E 1%, 1 cm)
Type: physicochemical
[1] = Table 7, values in order of the λmax values
[2] = Table 6A, N-isobutyl-C3-benzoyl compounds
[3] = values in order of the λmax values
[4] = Table 13A, miscellaneous compounds
[5] = Table 2, values in order of the λmax values

SMILES: CC(C)CN1C=C(C(=O)c2ccc(-c3ccccc3)cc2)C(C)(C)CC1 [drawing 86]
E (1%, 1 cm) (Table 6A): 509 | ε (Table 6A): 18000 M⁻¹ cm⁻¹ | λmax [2]: 320 nm

SMILES: COc1ccc(C(=O)CC(=O)C2=CN(CC(C)C)CCC2(C)C)cc1 [Compound 13, 1-(1-isobutyl-4,4-dimethyl-1,4,5,6-tetrahydropyridin-3-yl)-3-(4-methoxyphenyl)propane-1,3-dione]
UV λmax: 293 nm and 396 nm | ε (molar extinction coefficient) [3]: 14250 M⁻¹ cm⁻¹ and 11150 M⁻¹ cm⁻¹

SMILES: CC1(C)CCN(C(C)(C)C)C=C1C(=S)Nc1ccccc1 [Compound 182, 1-(tert-butyl)-4,4-dimethyl-N-phenyl-1,4,5,6-tetrahydropyridine-3-carbothioamide]
UV λmax: 363 nm | ε (molar extinction coefficient) [3]: 20881 M⁻¹ cm⁻¹

SMILES: CCC(=O)C1=CN(CC(C)C)C(=O)CC1(C)C [drawing 169]
λmax [4]: 291 nm

SMILES: CC1(C)CCN(c2ccc(C(C)(C)C)cc2)C=C1C(=O)Nc1ccc(NC(=O)C2=CN(c3ccc(C(C)(C)C)cc3)CCC2(C)C)cc1 [Compound 191, N,N′-(1,4-phenylene)bis(1-(4-(tert-butyl)phenyl)-4,4-dimethyl-1,4,5,6-tetrahydropyridine-3-carboxamide)]
UV λmax: 331 nm | ε (molar extinction coefficient) [3]: 68095 M⁻¹ cm⁻¹

SMILES: CC(C)CN1C=C(C(=O)c2ccc(C(C)(C)C)cc2)C(C)(C)CC1 [drawing 51]
λmax (Table 2, compounds 11-13): 317 nm | Ε (1%, 1 cm) [5]: 581 | ε [5]: 19000 M⁻¹ cm⁻¹

SMILES: CC(C)CN1C=C(S(=O)(=O)c2ccccc2)C(C)(C)CC1 [Compound 72, 1-Isobutyl-4,4-dimethyl-5-(phenylsulfonyl)-1,2,3,4-tetrahydropyridine]
UV λmax: 285 nm

SMILES: CCC(=O)C1=CN(c2ccc(C)cc2)CCC1(C)C [Compound 176, 1-(4,4-dimethyl-1-(p-tolyl)-1,4,5,6-tetrahydropyridin-3-yl)propan-1-one]
UV λmax: 327 nm | ε (molar extinction coefficient) [3]: 34608 M⁻¹ cm⁻¹

SMILES: CC(C)CN1C=C(C(=O)c2ccc3c(c2)CCO3)C(C)(C)CC1 [drawing 85]
E (1%, 1 cm) (Table 6A): 831 | ε (Table 6A): 22000 M⁻¹ cm⁻¹ | λmax [2]: 320 nm

SMILES: C=C/C=C/CC(=O)C1=CN(CC(C)C)CCC1(C)C [Compound 28, (E)-1-(1-isobutyl-4,4-dimethyl-1,4,5,6-tetrahydropyridin-3-yl)hexa-3,5-dien-1-one]
UV λmax: 311 nm

SMILES: CC(C)CN1C=C(C(=O)c2ccc(N(C)C)cc2)C(C)(C)CC1 [Compound 15, (4-(dimethylamino)phenyl)(1-isobutyl-4,4-dimethyl-1,4,5,6-tetrahydropyridin-3-yl)methanone]
UV λmax: 336 nm | ε (molar extinction coefficient) [3]: 17000 M⁻¹ cm⁻¹

SMILES: C=CCC(=O)C1=CN(CC(C)C)CCC1(C)C [Compound 29, 1-(1-isobutyl-4,4-dimethyl-1,4,5,6-tetrahydropyridin-3-yl)but-3-en-1-one]
UV λmax: 310 nm

SMILES: CC(C)(C)c1ccc(C(=O)CC(=O)c2ccc(OCc3ccc(Br)cc3)cc2)cc1 [Compound 9, 1-(4-((4-bromobenzyl)oxy)phenyl)-3-(4-(tert-butyl)phenyl)propane-1,3-dione]
UV λmax: 357 nm | ε (molar extinction coefficient) [3]: 35500 M⁻¹ cm⁻¹

SMILES: CN(C)c1ccc(N2C=C(C(=O)C(F)(F)F)C(C)(C)CC2)cc1 [Compound 196, 1-(1-(4-(dimethylamino)phenyl)-4,4-dimethyl-1,4,5,6-tetrahydropyridin-3-yl)-2,2,2-trifluoroethanone]
UV λmax: 354 nm | ε (molar extinction coefficient) [3]: 32744 M⁻¹ cm⁻¹

Continued, values first:

λmax (Table 7, unsaturated compounds): 306 nm | E (1%, 1 cm) [1]: 574 | ε [1]: 14500 M⁻¹ cm⁻¹
SMILES: C=C(C)CC(=O)C1=CN(CC(C)C)CCC1(C)C [drawing 108]

UV λmax: 305 nm | ε (molar extinction coefficient) [3]: 15425 M⁻¹ cm⁻¹
SMILES: CC1(C)CCN(C(C)(C)C)C=C1C(=O)C1=CN(C(C)(C)C)CCC1(C)C [Compound 167, bis(1-(tert-butyl)-4,4-dimethyl-1,4,5,6-tetrahydropyridin-3-yl)methanone]

UV λmax: 369 nm | ε (molar extinction coefficient) [3]: 17000 M⁻¹ cm⁻¹
SMILES: CC(C)CN1C=C(C(=O)/C=C/c2ccc(C(F)(F)F)cc2)C(C)(C)CC1 [Compound 33, (E)-1-(1-Isobutyl-4,4-dimethyl-1,4,5,6-tetrahydropyridin-3-yl)-3-(4-(trifluoromethyl)phenyl)prop-2-en-1-one]

E (1%, 1 cm) (Table 6A): 200 | ε (Table 6A): 7500 M⁻¹ cm⁻¹ | λmax [2]: 295 nm
SMILES: CC(C)CN1C=C(C(=O)c2ccc(C(=O)c3ccccc3)cc2)C(C)(C)CC1 [drawing 90]

UV λmax: 278 nm | ε (molar extinction coefficient) [3]: 22550 M⁻¹ cm⁻¹
SMILES: CC1(C)C=CN(c2ccccc2)CC1 [Compound 46, 4,4-dimethyl-1-phenyl-1,2,3,4-tetrahydropyridine]

UV λmax: 307 nm | ε value (unit inferred): > 54000 M⁻¹ cm⁻¹ | ε (molar extinction coefficient) [3]: 54797 M⁻¹ cm⁻¹
SMILES: CC1(C)CCN(C(C)(C)C)C=C1C(=O)CCCCCCCCC(=O)C1=CN(C(C)(C)C)CCC1(C)C [Compound 166, 1,10-bis(1-(tert-butyl)-4,4-dimethyl-1,4,5,6-tetrahydropyridin-3-yl)decane-1,10-dione]

UV λmax: 331 nm | ε (molar extinction coefficient) [3]: 20500 M⁻¹ cm⁻¹
SMILES: C=CC(=O)C1=CN(CC(C)C)CCC1(C)C [Compound 32, 1-(1-Isobutyl-4,4-dimethyl-1,4,5,6-tetrahydropyridin-3-yl)prop-2-en-1-one]

UV λmax: 306 nm
SMILES: COc1ccc(C(=O)C(CCCCCC(=O)C2=CN(CC(C)C)CCC2(C)C)C(=O)c2ccc(C(C)(C)C)cc2)cc1 (stereo not shown) [Compound 5]

λmax (Table 7, unsaturated compounds): 310 nm | E (1%, 1 cm) [1]: 1102 | ε [1]: 27000 M⁻¹ cm⁻¹
SMILES: C=CCC(=O)C1=CN(CC(C)C)CCC1(C)C [drawing 110]

UV λmax: 312 nm | ε (molar extinction coefficient) [3]: 15174 M⁻¹ cm⁻¹
SMILES: CN(C(=O)C1=CN(C(C)(C)C)CCC1(C)C)c1ccccc1 [Compound 180, 1-(tert-butyl)-N,4,4-trimethyl-N-phenyl-1,4,5,6-tetrahydropyridine-3-carboxamide]

UV λmax: 350 nm | ε (molar extinction coefficient) [3]: 21500 M⁻¹ cm⁻¹
SMILES: C=CC(=O)C1=CN(c2ccc(OC)cc2)CCC1(C)C [Compound 53, 1-(1-(4-methoxyphenyl)-4,4-dimethyl-1,4,5,6-tetrahydropyridin-3-yl)prop-2-en-1-one]

E (1%, 1 cm) (Table 13A): 716 | ε (Table 13A): 26000 M⁻¹ cm⁻¹ | λmax [4]: 314 nm
SMILES: CC(C)CN1C=C(C(=O)C(c2ccccc2)c2ccccc2)C(C)(C)CC1 [drawing 172]
